Experimental data published in PubChem BioAssay (NCI).
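Results reflect a 48-hour exposure of cells in 96-well plates to compound at five concentrations. GI50 = concentration required for 50% inhibition of growth. The concentration for full growth arrest is given as TGI.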

Experiments:
Assay in all cases: NCI tumour cell line growth inhibition, 48 h
[1] = test system: TK-10 renal
[2] = test system: MOLT-4 leukemia
[3] = test system: SF-295 CNS
[4] = test system: MDA-MB-231 breast
[5] = test system: SW-620 colon
[6] = test system: IGROV1 ovarian
[7] = test system: ACHN renal
[8] = test system: NCI-H460 lung
[9] = test system: HOP-62 NSCLC
[10] = test system: NCI/ADR-RES ovarian
[11] = test system: SK-OV-3 ovarian
[12] = test system: LOX IMVI melanoma
[13] = test system: NCI-H226 lung
[14] = test system: SK-MEL-5 melanoma
[15] = test system: OVCAR-4 ovarian
[16] = test system: A498 renal
[17] = test system: EKVX NSCLC
[18] = test system: K-562 leukemia
[19] = test system: UACC-62 melanoma
[20] = test system: SNB-19 CNS
[21] = test system: SK-MEL-28 melanoma
[22] = test system: SF-268 CNS
[23] = test system: OVCAR-8 ovarian
[24] = test system: HOP-92 NSCLC
[25] = test system: SNB-75 CNS
[26] = test system: MALME-3M melanoma
[27] = test system: CCRF-CEM leukemia
[28] = test system: NCI-H522 lung
[29] = test system: COLO 205 colon
[30] = test system: U251 CNS
[31] = test system: BT-549 breast
[32] = test system: OVCAR-3 ovarian
[33] = test system: HL-60(TB) leukemia
[34] = test system: M14 melanoma
[35] = test system: HCT-116 colon
[36] = test system: 786-0 renal
[37] = test system: HCC-2998 colon
[38] = test system: HCT-15 colon
[39] = test system: OVCAR-5 ovarian
[40] = test system: UACC-257 melanoma
[41] = test system: HT29 colon
[42] = test system: UO-31 renal
[43] = test system: RXF 393 renal
[44] = test system: PC-3 prostate
[45] = test system: DU-145 prostate
[46] = test system: SK-MEL-2 melanoma
[47] = test system: MDA-MB-435
[48] = test system: RPMI-8226 leukemia
[49] = test system: SR leukemia
[50] = test system: NCI-H23 lung
[51] = test system: SN12C renal
[52] = test system: CAKI-1 renal
[53] = test system: KM12 colon
[54] = test system: HS 578T breast
[55] = test system: SF-539 CNS
[56] = test system: A549 NSCLC
[57] = test system: T-47D breast
[58] = test system: MCF7 breast

With O=C(Nc1ccc(-n2ccc3c(NC(=O)c4ccccc4)ncnc32)cc1)c1cccc(C(F)(F)F)c1 the GI50 [1] was 8.57 µM, the TGI [1] was 27.2 µM and the GI50 [2] was 0.493 µM. The TGI [2] was 32.7 µM, the GI50 [3] was 1.07 µM and the TGI [3] was 16.9 µM. For the same compound, the GI50 [4] was 2.76 µM, the TGI [4] was 23 µM and the GI50 [5] was 1.05 µM. The TGI [5] was 18.8 µM, the GI50 [6] was 5.63 µM and the TGI [6] was 27.2 µM. For the same compound, the GI50 [7] was 1.09 µM, the TGI [7] was 23.6 µM and the GI50 [8] was 0.0837 µM. It also gave a TGI [8] of 12.3 µM, a GI50 [9] of 10.9 µM and a TGI [9] of 24.4 µM. For the same compound, the GI50 [10] was 2.67 µM, the TGI [10] was 37.4 µM and the GI50 [11] was 4.12 µM. The TGI [11] was 29.4 µM, the GI50 [12] was 0.218 µM and the TGI [12] was 5.83 µM. The GI50 [13] was 6.14 µM, the TGI [13] was 26.1 µM and the GI50 [14] was 0.232 µM. It also gave a TGI [14] of 15.8 µM, a GI50 [15] of 4.31 µM and a TGI [15] of 31.2 µM. For the same compound, the GI50 [16] was 3.51 µM, the TGI [16] was 23.2 µM and the GI50 [17] was 6.38 µM. For the same compound, the TGI [17] was 22.7 µM, the GI50 [18] was 0.13 µM and the TGI [18] was > 53.8 µM. For the same compound, the GI50 [19] was 0.809 µM, the TGI [19] was 11.1 µM and the GI50 [20] was 2.13 µM. For the same compound, the TGI [20] was 33.4 µM, the GI50 [21] was 10.6 µM and the TGI [21] was 24.9 µM. The GI50 [22] was 1.16 µM, the TGI [22] was 24.5 µM and the GI50 [23] was 1.16 µM. For the same compound, the TGI [23] was 29.2 µM, the GI50 [24] was 7.51 µM and the TGI [24] was 26 µM. The GI50 [25] was 3.58 µM, the TGI [25] was 22.3 µM and the GI50 [26] was 9.75 µM. It also gave a TGI [26] of 26.1 µM, a GI50 [27] of 0.346 µM and a TGI [27] of 25.2 µM. For the same compound, the GI50 [28] was 1.87 µM, the TGI [28] was 20.6 µM and the GI50 [29] was 4.1 µM. It also gave a TGI [29] of 20.9 µM, a GI50 [30] of 0.146 µM and a TGI [30] of 13.7 µM. It also gave a GI50 [31] of 9.57 µM, a TGI [31] of 30 µM and a GI50 [32] of 4.37 µM. The TGI [32] was 20.9 µM, the GI50 [33] was 3.02 µM and the TGI [33] was 36.7 µM. The GI50 [34] was 2.85 µM, the TGI [34] was 17.6 µM and the GI50 [35] was 0.139 µM. For the same compound, the TGI [35] was 15.9 µM, the GI50 [36] was 2.91 µM and the TGI [36] was 21.9 µM. For the same compound, the GI50 [37] was 4.96 µM, the TGI [37] was 27 µM and the GI50 [38] was 0.0643 µM. It also gave a TGI [38] of 24.8 µM, a GI50 [39] of 6.18 µM and a TGI [39] of 31.7 µM. The GI50 [40] was 10.2 µM, the TGI [40] was 32.1 µM and the GI50 [41] was 0.457 µM. It also gave a TGI [41] of 15.7 µM, a GI50 [42] of 3.42 µM and a TGI [42] of 21.7 µM. It also gave a GI50 [43] of 3.39 µM, a TGI [43] of 19.9 µM and a GI50 [44] of 3.3 µM. It also gave a TGI [44] of 34 µM, a GI50 [45] of 1.77 µM and a TGI [45] of 16.1 µM. It also gave a GI50 [46] of 1.47 µM, a TGI [46] of 13.5 µM and a GI50 [47] of 2.16 µM. It also gave a TGI [47] of 16.3 µM, a GI50 [48] of 1.6 µM and a TGI [48] of 33.3 µM. For the same compound, the GI50 [49] was 0.0678 µM, the TGI [49] was > 32.5 µM and the GI50 [50] was 13.3 µM. The TGI [50] was 35.7 µM, the GI50 [51] was 5.27 µM and the TGI [51] was 27.9 µM. The GI50 [52] was 1.13 µM, the TGI [52] was > 44.6 µM and the GI50 [53] was 0.626 µM. For the same compound, the TGI [53] was 16.7 µM, the GI50 [54] was 3.65 µM and the TGI [54] was 33.3 µM. The GI50 [55] was 1.11 µM, the TGI [55] was > 93.3 µM and the GI50 [56] was 0.966 µM. It also gave a TGI [56] of 21.1 µM, a GI50 [57] of 5.82 µM and a TGI [57] of 30.6 µM. The GI50 [58] was 1.39 µM and the TGI [58] was 18.5 µM.
